Key:
[1] = tested on: human neuroblastoma cells; conditions: cited from earlier work
α-synuclein = assay: Western blot of α-synuclein protein levels in SH-SY5Y cells; type: cell-based, human; conditions: for basal α-synuclein expression levels: treatment alone vs control
Experimental: (§1) Human neuroblastoma SH-SY5Y cells were grown in DMEM/F12 medium containing 10% fetal bovine serum (FBS) and 1% antibiotic/antimycotic mix. Cells were maintained at 37° C. in a saturated humidity atmosphere containing 95% air and 5% CO2.
(§2) Treated SH-SY5Y cells were washed with PBS and trypsinized to collect the cells and centrifuged at 5000 g. The pellet was washed again with PBS and homogenized in NE-PER tissue protein extraction reagent (Thermo Scientific, Rockford, Ill.) supplemented with protease and phosphatase inhibitors. Protein concentrations from the cytosolic and nuclear homogenates were determined with BCA protein assay.
(§3) Proteins (10 μg) were separated on SDS-PAGE gels, transferred to a polyvinylidene difluoride membrane (BioRad, Hercules, Calif.), and incubated with the following monoclonal antibodies: anti-TH mouse antibody (1:1000; Sigma Aldrich, Saint Louis, Mo.), anti-α-synuclein mouse antibody (1:500; Chemicon, Temecula, Calif.), anti-ERα rabbit antibody (1:500; Abcam, Cambridge, Mass.), anti-ERβ rabbit antibody (1:200; Upstate, Lake Placid, N.Y.), anti-LXRα rabbit antibody (1:500; Abcam, Cambridge, Mass.), anti-LXRβ mouse antibody (1:500; Abcam, Cambridge, Mass.).
(§4) β-actin and Lamin A were used as a gel loading control for cytosolic homogenates and nuclear homogenates respectively. The blots were developed with enhanced chemiluminescence (Immmun-star HRP chemiluminescent kit, Bio-Rad, Hercules, Calif.). Bands were visualized on a polyvinylidene difluoride membrane and analyzed by LabWorks 4.5 software on a UVP Bioimaging System (Upland, Calif.). Quantification of results was performed by densitometry and the results analyzed as total integrated densitometric values (arbitrary units).

[2] = in vivo; cited from earlier work
[3] = tested on: experimental intracerebral hemorrhage; conditions: 10 μmol.Kg^−1.day^−1 i.p.; cited from earlier work
TH = assay: Western blot of TH protein levels in SH-SY5Y neuroblastoma cells; type: cell-based, human; conditions: 24 h
Experimental: as §1, §2, §3, §4

TH mRNA = assay: Real time RT-PCR of TH mRNA in SH-SY5Y cells; type: cell-based, human; conditions: 24 h
Experimental: as §1
Total RNA was isolated and extracted from treated cells using the 5 prime “PerfectPure RNA tissue kit” (5 Prime, Inc., Gaithersburg, Md.). RNA estimation was performed using “Quant-iT RNA Assay Kit” using a Qubit fluorometer according to the manufacturer's protocol (Invitrogen, Carlsbad, Calif.). cDNA was synthesized by reverse transcribing 1 μg of extracted RNA using an “iScript cDNA synthesis kit” (BioRad, Hercules, Calif.). The oligomeric primers (Sigma, St Louis, Mo.) used to amplify the TH mRNA and α-synuclein mRNA are enumerated in Table 1. The cDNA amplification was performed using an iQ SYBR Green Supermix kit following the manufacturer's instructions (BioRad, Hercules, Calif.). The amplification was performed using an iCycler iQ Multicolor Real Time PCR Detection System (BioRad, Hercules, Calif.). The expression of specific TH and α-synuclein transcripts amplified were normalized to the expression of glyceraldehyde-3-phosphate dehydrogenase (GAPDH).

ERβ = molecular target: T1, ERβ (Homo sapiens, UniProt Q92731); assay: Western blot of ERβ levels in the nucleus (nuclear translocation), SH-SY5Y cells; type: cell-based; conditions: 24 h
T1 construct: endogenous in cells; host or cells: SH-SY5Y human neuroblastoma cells
T1 sequence (Q92731 whole entry): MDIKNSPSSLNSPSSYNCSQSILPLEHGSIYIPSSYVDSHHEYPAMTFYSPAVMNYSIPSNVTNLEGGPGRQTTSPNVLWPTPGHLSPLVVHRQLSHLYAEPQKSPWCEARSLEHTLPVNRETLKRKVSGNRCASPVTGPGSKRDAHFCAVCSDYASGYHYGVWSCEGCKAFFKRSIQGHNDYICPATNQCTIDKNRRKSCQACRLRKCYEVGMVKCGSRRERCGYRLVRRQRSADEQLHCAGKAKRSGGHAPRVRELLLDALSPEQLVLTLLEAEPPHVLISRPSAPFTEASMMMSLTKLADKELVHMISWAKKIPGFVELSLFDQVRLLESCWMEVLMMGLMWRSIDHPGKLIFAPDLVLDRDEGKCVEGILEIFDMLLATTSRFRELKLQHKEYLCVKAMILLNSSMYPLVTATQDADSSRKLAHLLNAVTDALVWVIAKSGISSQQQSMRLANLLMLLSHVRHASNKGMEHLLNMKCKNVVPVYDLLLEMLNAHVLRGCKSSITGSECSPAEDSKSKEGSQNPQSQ
Experimental: as §1, §2, §3, §4

ERα/β = assay: EMSA, binding of nuclear ER to probe for the ERE half site in the TH promoter; type: cell-based, human
TH promoter = assay: Dual-luciferase TH promoter assay; type: cell-based, human
Experimental: Constructs encoding ERE and TH promoter conjugated to the firefly luciferase gene were used in the study. Human neuroblastoma SH-SY5Y cells were plated in 96-well plates at a density of 2×10^4 cells/well. The cells were transfected when 80% confluent with 0.25 μg of either ERE-firefly Luciferase reporter construct, LXRE-firefly Luciferase reporter construct, or TH promotor-firefly Luciferase promoter construct. Respective non-inducible reporter constructs containing constitutively expressing Renilla luciferase were used as negative internal controls. Constitutively expressing GFP constructs were used as positive control to determine transfection efficiency. Cells were incubated for 24 hours with Opti-MEM serum free medium (Invitrogen, Carlsbad, Calif.) containing the reporter constructs dissolved in transfection reagent. After 24 hours the medium was changed and the cells were incubated in normal DMEM/F12 medium containing 10% FBS and cells were treated with the different treatment regimens. The cells were treated in triplicate and harvested 24 hours later and subjected to dual-luciferases assay. The dual-luciferase assay was performed using a “Dual-Luciferase Reporter Assay System” from Promega (Madison, Wis.). The luminescence recorded is expressed as Relative Luminescence Units (RLU) and normalized to per mg protein. Unit value was assigned to control and the magnitude of differences among the samples is expressed relative to the unit value of control cells.

ARPE-19 cells = assay: ROS levels in ARPE-19 cells; type: cell-based; conditions: ARPE-19, 24 h, co-treatment with 27-OHC, all at 10 μM
TNF-α = TNF-α levels in ARPE-19 cells; type: cell-based; conditions: ARPE-19, 24 h, co-treatment with 27-OHC, all at 10 μM

## CC(C)C(O)CC[C@@H](C)[C@H]1CC[C@H]2[C@@H]3CC=C4C[C@@H](O)CC[C@]4(C)[C@H]3CC[C@]12C (some centres unmarked) [24-OHC, 24-hydroxycholesterol]
[1]
  27-OHC-induced effects on TH: reverse
  27-OHC-induced effects on α-synuclein: reverse

## C[C@]12CC[C@@H]3c4ccc(O)cc4C[C@@H](CCCCCCCCC[S+]([O-])CCCC(F)(F)C(F)(F)F)[C@H]3[C@@H]1CC[C@@H]2O (some centres unmarked) [ICI 182780, Fulvestrant]
α-synuclein
  basal α-synuclein expression levels: no effect

## CCC1=C(C)c2cc3[n-]c(cc4[n-]c(cc5nc(cc1n2)C(C)=C5CC)c(C)c4CCC(=O)O)c(CCC(=O)O)c3C.[Cl-].[Cl-].[Sn+4] [SnMP, Tin-mesoporphyrin IX]
[2]
  blood brain barrier passage: crosses
[3]
  protection against experimental intracerebral hemorrhage: protect

## C[C@]12CC[C@@H]3c4ccc(O)cc4CC[C@H]3[C@@H]1CC[C@@H]2O [estradiol, 17β-estradiol]
TH; concomitant with 10 μM 27-OHC, compared to control or 27-OHC
  TH protein levels: significant increase
TH; treatment alone vs control (10 μM 27-OHC, 1 nM estradiol, 10 μM GW3965, 10 μM ECHS)
  TH protein levels / TH expression: profound increase
TH mRNA; concomitant with 10 μM 27-OHC
  27-OHC-induced attenuation of TH mRNA: completely reversed
TH mRNA; treatment alone vs control
  TH mRNA: increase
ERβ; concomitant with 10 μM 27-OHC
  27-OHC-induced attenuation in the nuclear translocation of ERβ: completely reduced
ERβ; treatment alone vs control
  nuclear translocation / nuclear levels of ERβ: increases
ERα/β
  binding of nuclear ER to the DNA probe corresponding to the ERE-half site on the TH promoter: significantly increases
  inhibitory effects of 27-OHC on binding of ER to the exogenous DNA probe: completely reverses
TH promoter; SH-SY5Y transfected with TH promoter-luciferase, 24 h
  increase in basal TH promoter activity: 2.5 fold
TH promoter; concomitant with 27-OHC
  27-OHC-induced reduction of TH promoter activity: completely reversed
α-synuclein; estradiol added to 27-OHC+ECHS
  effect of ECHS on 27-OHC-induced increase in α-synuclein expression: does not alter
α-synuclein; in combination with ECHS
  α-synuclein expression: no effect
α-synuclein
  basal α-synuclein expression levels: no effect
ARPE-19 cells
  27-OHC-induced increase in ROS levels: not
TNF-α
  27-OHC-induced increase in TNF-α levels: reduced

Reference: US20150031655A1, “COMBINATION OF LIVER X RECEPTOR MODULATOR AND ESTROGEN RECEPTOR MODULATOR FOR THE TREATMENT OF AGE-RELATED DISEASES” (UNIVERSITY OF NORTH DAKOTA, priority 2011, published 2015)
